Legend:
EGFR T790M L858R = target: T1, EGFR T790M L858R (Homo sapiens, UniProt P00533, L858R/T790M); experiment: EGFR T790M L858R biochemical assay (Caliper mobility shift); settings: 5 μM ATP; apparent Ki (Morrison fit) converted by Cheng-Prusoff, Km of ATP 1.3 μM
T1 construct: purchased Life Technologies PV4879
Experimental: The exemplified compounds described herein were tested according to the assay below. The enzyme data reported in Tables 4-5 is generally a representative of multiple experiments.
Reactions proceed for 30 minutes at room temperature (22° C.) and are terminated with 80 mM 2,2′,2″,2′″-(ethane-1,2-diyldinitrilo)tetraacetic acid (EDTA). Product is detected using the Caliper mobility shift detection method where product and substrate are electrophoretically separated and measured.

[1] = target: T2, phosphor-EGFR in H1975(L585R/T790M) mutant EGFR expressing cells (Homo sapiens, UniProt P00533, L858R/T790M); experiment: H1975 pEGFR MSD cellular assay; format: cell-based; settings: NCI-H1975 cells, serum starved, 1 hour compound incubation, pEGFR Tyr1068 MSD; read-out: HI975 pEGFR EC50
T2 construct: host or cells: NCI-H1975
T2 sequence (P00533 25-1210 T790M/L858R): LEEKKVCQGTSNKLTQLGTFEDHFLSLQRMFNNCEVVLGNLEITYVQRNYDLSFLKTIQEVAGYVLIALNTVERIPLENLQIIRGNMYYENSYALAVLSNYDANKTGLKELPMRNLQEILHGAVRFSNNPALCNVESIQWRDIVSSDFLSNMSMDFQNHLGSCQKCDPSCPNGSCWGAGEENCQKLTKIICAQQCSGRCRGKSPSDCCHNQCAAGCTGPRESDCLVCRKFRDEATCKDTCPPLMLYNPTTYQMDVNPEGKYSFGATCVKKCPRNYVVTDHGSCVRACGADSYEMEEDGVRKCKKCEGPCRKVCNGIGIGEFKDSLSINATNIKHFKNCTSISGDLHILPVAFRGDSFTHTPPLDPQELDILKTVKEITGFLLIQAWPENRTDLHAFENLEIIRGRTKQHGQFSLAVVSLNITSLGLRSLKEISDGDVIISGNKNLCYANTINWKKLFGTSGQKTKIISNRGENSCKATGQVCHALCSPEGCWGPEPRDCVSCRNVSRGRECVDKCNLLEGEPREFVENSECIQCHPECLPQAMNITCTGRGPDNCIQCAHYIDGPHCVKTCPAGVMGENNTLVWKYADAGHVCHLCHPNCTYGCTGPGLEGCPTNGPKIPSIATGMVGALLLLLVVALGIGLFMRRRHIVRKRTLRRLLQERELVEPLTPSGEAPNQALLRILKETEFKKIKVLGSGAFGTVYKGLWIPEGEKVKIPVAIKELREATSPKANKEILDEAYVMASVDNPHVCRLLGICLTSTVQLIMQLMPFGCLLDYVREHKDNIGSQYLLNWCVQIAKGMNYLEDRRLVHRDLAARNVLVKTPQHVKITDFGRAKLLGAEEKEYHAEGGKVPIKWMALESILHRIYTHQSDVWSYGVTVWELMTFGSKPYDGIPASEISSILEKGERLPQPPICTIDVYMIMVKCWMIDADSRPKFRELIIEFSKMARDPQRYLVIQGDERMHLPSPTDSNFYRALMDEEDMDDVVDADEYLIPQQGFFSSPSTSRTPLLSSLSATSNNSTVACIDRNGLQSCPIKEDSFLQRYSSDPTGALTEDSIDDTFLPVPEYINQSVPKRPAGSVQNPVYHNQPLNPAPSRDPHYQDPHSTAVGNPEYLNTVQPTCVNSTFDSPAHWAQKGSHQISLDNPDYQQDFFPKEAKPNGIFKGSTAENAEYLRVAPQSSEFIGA
Experimental: H1975 pEGFR MSD Cellular Assays
These assays are intended for determining cellular. […] (Meso Scale Discovery Catalog# N31CB-1).
NCI-H1975 (ATCC Catalog# CRL-5908) cells are maintained in medium containing RPMI 1640, 10% FBS, 4 mM L-Glutamine, 1% Penicillin-Streptomycin, and 4.5 g/L Glucose. All cell culture reagents were purchased from Invitrogen/Gibco. Cells are cultured at 37° C. at 5% CO2 and split as recommended by ATCC.
Cell Plating and Serum Starvation:
H1975 cells are harvested and plated into sterile cell culture treated 384 well plates (Greiner catalog #781091) at a density of 30,000 cells/well in 50 ul culture medium and placed in a 37° C. at 5% CO2 incubator for six hours. After six hours, culture medium is aspirated and replaced with serum-free culture medium. Cells are then incubated with the serum-free medium overnight at 37° C. and 5% CO2.
The following day, test compounds are serially diluted in dimethyl sulfoxide (DMSO) and added to cells in serum free medium (final DMSO concentration 0.5%). Assay plates are then incubated for 1 hour at 37° C. and 5% CO2. Following 1 hour of compound incubation cells are then lysed and processed as per the MSD pEGFR assay kit protocol. Cell lysates are added to assay plates pre-coated with antibodies against phosphorylated EGFR. Phosphorylated EGFR in samples are allowed to bind to the capture antibodies overnight at 4° C. The detection antibody (anti-total EGFR, labeled with an electrochemiluminescent SULFO-TAG) is added to the bound lysate and incubated for 1 hour at room temperature. The MSD Read Buffer is added such that when a voltage is applied to the plate electrodes, the labels bound to the electrode surface emit light. The MSD Sector Instrument measures the intensity of the light, and quantitatively measures the amount of phosphorylated-EGFR in the sample. Percent inhibition of EGFR phosphorylation by varying concentrations of test compounds is calculated relative to untreated controls. EC50 values are calculated using the 4 parameter logistic nonlinear regression dose-response model.

[2] = system: H1975 (EGFR T790M/L858R) cell proliferation; experiment: H1975 proliferation assay (Cell Titer-Glo); format: cell-based; settings: Homo sapiens, NCI-H1975, 72 h, NCI-H1975 cells, 72 hour incubation, read-out: H1975 antiproliferative EC50
Experimental: H1975 Proliferation Assays
All cell culture reagents were purchased from Invitrogen/Gibco. Cells are cultured at 37° C. at 5% CO2 and split as recommended by ATCC.

T1 sequence (P00533 25-1210 T790M/L858R): as above

| Ki (EGFR T790M L858R) | EC50 [1] | EC50 [2] | SMILES |
| --- | --- | --- | --- |
| 0.6 nM | 14.4 nM | 108 nM | CCC(C)n1nc(N2CCNC2=O)c2cnc(Nc3ccnc(N4CC[C@@H](OC)[C@@H](F)C4)n3)cc21 (mixture of isomers) [Example 26, (±)-1-(1-(sec-Butyl)-6-((2-(cis-3-fluoro-4-methoxypiperidin-1-yl)pyrimidin-4-yl)amino)-1H-pyrazolo[4,3-c]pyridin-3-yl)imidazolidin-2-one] |
| 609 nM | 606 nM | 2020 nM | CC(C)n1nc(N2CCS(=O)(=O)CC2)c2cnc(Nc3ccnc(-c4cnn(S(=O)(=O)C5CC5)c4)n3)cc21 [Example 1, 4-(6-((2-(1-(Cyclopropylsulfonyl)-1H-pyrazol-4-yl)pyrimidin-4-yl)amino)-1-isopropyl-1H-pyrazolo[4,3-c]pyridin-3-yl)thiomorpholine 1,1-dioxide] |
| 3 nM | 219 nM | 732 nM | CC(C)n1nc(N2CC3(COC3)C2)c2cnc(Nc3ccnc(-c4cnn(CC5CC5)c4)n3)cc21 [Example 4, N-(2-(1-(Cyclopropylmethyl)-1H-pyrazol-4-yl)pyrimidin-4-yl)-1-isopropyl-3-(2-oxa-6-azaspiro[3.3]heptan-6-yl)-1H-pyrazolo[4,3-c]pyridin-6-amine] |
| 1 nM | 29.6 nM | 421 nM | CC(C)n1nc(N2CC3(COC3)C2)c2cnc(Nc3ccnc(-c4cnn(S(=O)(=O)C5CC5)c4)n3)cc21 [Example 5, N-(2-(1-(Cyclopropylsulfonyl)-1H-pyrazol-4-yl)pyrimidin-4-yl)-1-isopropyl-3-(2-oxa-6-azaspiro[3.3]heptan-6-yl)-1H-pyrazolo[4,3-c]pyridin-6-amine] |
| 5.2 nM | 382 nM | 1840 nM | CC(C)n1nc(N2CCOCC2)c2cnc(Nc3ccnc(-c4cnn(CC5CC5)c4)n3)cc21 [Example 9, N-(2-(1-(Cyclopropylmethyl)-1H-pyrazol-4-yl)pyrimidin-4-yl)-1-isopropyl-3-morpholino-1H-pyrazolo[4,3-c]pyridin-6-amine] |
| 1.1 nM | 79.7 nM | 921 nM | CCS(=O)(=O)n1cc(-c2nccc(Nc3cc4c(cn3)c(NC3COC3)nn4C(C)C)n2)cn1 [Example 16, N^6-(2-(1-(Ethylsulfonyl)-1H-pyrazol-4-yl)pyrimidin-4-yl)-1-isopropyl-N^3-(oxetan-3-yl)-1H-pyrazolo[4,3-c]pyridine-3,6-diamine] |
| 4.9 nM | 723 nM | 1460 nM | CC(C)n1nc(C2CCOC2)c2cnc(Nc3ccnc(-c4cnn(S(=O)(=O)C5CC5)c4)n3)cc21 (stereo not drawn) [Example 19, N-(2-(1-(Cyclopropylsulfonyl)-1H-pyrazol-4-yl)pyrimidin-4-yl)-1-isopropyl-3-(tetrahydrofuran-3-yl)-1H-pyrazolo[4,3-c] pyridin-6-amine] |
| 0.8 nM | 15.7 nM | 121 nM | CC(C)n1nc(N2CC[C@@H](C#N)C2)c2cnc(Nc3ccnc(-c4cnn(S(=O)(=O)C5CC5)c4)n3)cc21 [Example 28, (R)-1-(6-((2-(1-(Cyclopropylsulfonyl)-1H-pyrazol-4-yl)pyrimidin-4-yl)amino)-1-isopropyl-1H-pyrazolo[4,3-c]pyridin-3-yl)pyrrolidine-3-carbonitrile] |
| 1.9 nM | 154 nM | 798 nM | CC(C)n1nc(OC2CCOC2)c2cnc(Nc3ccnc(-c4cnn(S(=O)(=O)C5CC5)c4)n3)cc21 (stereo not drawn) [Example 29, N-(2-(1-(Cyclopropylsulfonyl)-1H-pyrazol-4-yl)pyrimidin-4-yl)-1-isopropyl-3-(tetrahydrofuran-3-yloxy)-1H-pyrazolo[4,3-c]pyridin-6-amine] |
| 0.7 nM | 51.3 nM | 1450 nM | COCCNC(=O)C1CN(c2nn(C(C)C)c3cc(Nc4ccnc(-c5cnn(S(=O)(=O)C6CC6)c5)n4)ncc23)C1 [Example 30, 1-(6-(2-(1-(Cyclopropylsulfonyl)-1H-pyrazol-4-yl)pyrimidin-4-ylamino)-1-isopropyl-1H-pyrazolo[4,3-c]pyridin-3-yl)-N-(2-methoxyethyl)azetidine-3-carboxamide] |
| 1.4 nM | 116 nM | 1060 nM | CC(C)n1nc(N2CCCC2)c2cnc(Nc3ccnc(-c4cnn(CC5CC5)c4)n3)cc21 [Example 31, N-(2-(1-(cyclopropylmethyl)-1H-pyrazol-4-yl)pyrimidin-4-yl)-1-isopropyl-3-(pyrrolidin-1-yl)-1H-pyrazolo[4,3-c]pyridin-6-amine] |
| 35.6 nM | 3830 nM | 498 nM | CC(C)n1ncc2cnc(Nc3ccnc(-c4cnn(CC5CC5)c4)n3)cc21 [Example 32, N-(2-(1-(cyclopropylmethyl)-1H-pyrazol-4-yl)pyrimidin-4-yl)-1-isopropyl-1H-pyrazolo[4,3-c]pyridin-6-amine] |
| 7.5 nM | 1020 nM | 110 nM | CC(C)n1ncc2cnc(Nc3ccnc(N4CCC(O)C(C)(C)C4)n3)cc21 (stereo not drawn) [Example 33, 1-(4-((1-isopropyl-1H-pyrazolo[4,3-c]pyridin-6-yl)amino)pyrimidin-2-yl)-3,3-dimethylpiperidin-4-ol] |
| 2.6 nM | 111 nM | 1410 nM | CC(C)n1nc(N2CCOCC2)c2cnc(Nc3ccnc(N4CCC(O)C(C)(C)C4)n3)cc21 (stereo not drawn) [Example 34] |
| 0.7 nM | 15.8 nM | 397 nM | CCS(=O)(=O)n1cc(-c2nccc(Nc3cc4c(cn3)c(N3CC(CO)C3)nn4C(C)C)n2)cn1 [Example 36, (1-(6-(2-(1-(ethylsulfonyl)-1H-pyrazol-4-yl)pyrimidin-4-ylamino)-1-isopropyl-1H-pyrazolo[4,3-c]pyridin-3-yl)azetidin-3-yl)methanol] |
| 1.1 nM | 71.1 nM | 373 nM | CC(C)n1nc(N[C@H]2CCOC2)c2cnc(Nc3ccnc(-c4cnn(S(=O)(=O)C5CC5)c4)n3)cc21 [Example 39, (S)-N6-(2-(1-(cyclopropylsulfonyl)-1H-pyrazol-4-yl)pyrimidin-4-yl)-1-isopropyl-N3-(tetrahydrofuran-3-yl)-1H-pyrazolo[4,3-c]pyridine-3,6-diamine] |
| 1.1 nM | 84.8 nM | 775 nM | CC(C)n1nc(N[C@@H]2CCOC2)c2cnc(Nc3ccnc(-c4cnn(S(=O)(=O)C5CC5)c4)n3)cc21 [Example 40, (R)-N6-(2-(1-(cyclopropylsulfonyl)-1H-pyrazol-4-yl)pyrimidin-4-yl)-1-isopropyl-N3-(tetrahydrofuran-3-yl)-1H-pyrazolo[4,3-c]pyridine-3,6-diamine] |
| 1.3 nM | 9.4 nM | 162 nM | CC(C)n1nc(N2CC[C@@H](CO)C2)c2cnc(Nc3ccnc(-c4cnn(S(=O)(=O)C5CC5)c4)n3)cc21 [Example 41, (R)-(1-(6-(2-(1-(cyclopropylsulfonyl)-1H-pyrazol-4-yl)pyrimidin-4-ylamino)-1-isopropyl-1H-pyrazolo[4,3-c]pyridin-3-yl)pyrrolidin-3-yl)methanol] |
| 1.1 nM | 12.5 nM | 240 nM | CC(C)n1nc(N2CC(O)C(F)C2)c2cnc(Nc3ccnc(-c4cnn(S(=O)(=O)C5CC5)c4)n3)cc21 (stereo not drawn) [Example 42, 1-(6-(2-(1-(cyclopropylsulfonyl)-1H-pyrazol-4-yl)pyrimidin-4-ylamino)-1-isopropyl-1H-pyrazolo[4,3-c]pyridin-3-yl)-trans-4-fluoropyrrolidin-3-ol] |
| 0.9 nM | 37.5 nM | 237 nM | CC(C)n1nc(N2CCN=C2O)c2cnc(Nc3ccnc(-c4cnn(S(=O)(=O)C5CC5)c4)n3)cc21 [Example 43, 1-(6-(2-(1-(cyclopropylsulfonyl)-1H-pyrazol-4-yl)pyrimidin-4-ylamino)-1-isopropyl-1H-pyrazolo[4,3-c]pyridin-3-yl)-4,5-dihydro-1H-imidazol-2-ol] |

From patent US9951064B2, “Azaindazole compounds as inhibitors of T790M containing EGFR mutants” (Genentech, Inc., priority 2013, dated 2018)
